Source: publication PMC3687097 (Diabetes Therapy, 2013)
Entries after “also recorded” stand apart in the source; their conditions may differ. Like-named read-outs stand apart in the source and are kept apart here.

How the values were obtained:
[1] = for Patients reporting an adverse event: 22 patients
[2] = cited from earlier work

Row | Compound | Episodes of hypoglycemia ([1]; dapagliflozin 10 mg single oral dose, with and without voglibose) | Patients reporting an adverse event ([1]; pharmacokinetic sampling period 1: dapagliflozin with voglibose) | Patients reporting an adverse event ([1]; pharmacokinetic sampling period 2: dapagliflozin only) | Intensity of observed AEs ([1]; whole study, dapagliflozin 10 mg with or without voglibose) | Systemic / gastrointestinal absorption after oral administration [2]
1 | CCOc1ccc(Cc2cc([C@@H]3O[C@H](CO)[C@@H](O)[C@H](O)[C@H]3O)ccc2Cl)cc1 [Dapagliflozin] | no episodes of hypoglycemia | one patient | three patients | mild or moderate | –
2 | OCC(CO)N[C@H]1C[C@](O)(CO)[C@@H](O)[C@H](O)[C@H]1O [Voglibose] | – | – | – | – | poorly absorbed; also recorded: minimal systemic absorption
